Assay results from EP1137645B1, “ALPHA-METHYLBENZYL-CONTAINING THIOUREA INHIBITORS OF HERPES VIRUSES CONTAINING A […] GROUP” (Wyeth, priority 1998, dated 2000).
≈ marks a conversion by molar mass, not a printed value. Like-named read-outs stand apart in the source and are kept apart here.

Key:
[1] = tested on: VZV strain Ellen; test: VZV antiviral (ELISA) assay; assay type: cell-based
Method in brief: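 HFF cells infected with VZV Ellen at multiplicity below 0.1 overnight, then mixed infected/uninfected cells seeded with compound in DMEM/2% FBS and incubated three days at 37°C, 5% CO2.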

[2] = tested on: HSV- I; test: HSV antiviral (ELISA) assay; assay type: cell-based; details: for IC50: read-out: IC50 (ug/ml) HSV
Method in brief: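 IC50 from fluorescence versus untreated control in a cell ELISA: anti-glycoprotein D antibody, β-galactosidase-conjugated secondary, 4-methyl umbelliferone read at 365/450 nm. Vero cells (2% FBS DMEM) received compound 30 min pre-infection with HSV-1 at MOI 0.006, fixed ~24 h post-infection.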

[3] = tested on: HCMV recombinant mutant virus whose genome contains the prokaryotic beta-glucuronidase gene; test: microbe, parasite or virus in culture; assay type: cell-based, human cytomegalovirus; details: for IC50: Human betaherpesvirus 5, Fibroblast; for IC50 ug/ml HCMV: human foreskin fibroblasts
Method in brief: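 Antiviral IC50 estimated from reduced reporter activity across compound amounts: lysates prepared 96 h after infection were tested with p-nitrophenyl- or methylumbelliferyl-glucuronide. Cells were human foreskin fibroblasts, infected alongside inhibitor with HCMV (e.g. RV145) expressing viral promoter-driven beta-glucuronidase.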

[4] = Human alphaherpesvirus 3, VZV strain Ellen, HFF cells, ELISA, read-out: IC50 (ug/ml) VZV
[5] = Human alphaherpesvirus 3, HFF, read-out: IC50 (ug/ml) VZV, VZV strain Ellen, HFF cells, ELISA
[6] = read-out: IC50 ug/ml HCMV, HCMV, human foreskin fibroblasts
[7] = VZV strain Ellen, HFF cells, ELISA

Compound	IC50 [1, 4]	IC50 ([2]; HSV- I, Vero cells, ELISA)	IC50 ([3]; read-out: IC50 ug/ml HCMV)	IC50 [1, 5]	IC50 ([2]; Vero)	IC50 [3, 6]	further results
O=C(Nc1ccc(NC(=S)Nc2ccc(OCC(F)(F)F)cc2OCC(F)(F)F)cc1)c1ccccc1F [Example 1010, N-(4-{3-[2,4-Bis-(2,2,2-trifluoro-ethoxy)-phenyl]-thioureido}-phenyl)-2-fluoro-benzamide]	> 10 µg/mL	> 10 µg/mL	> 10 µg/mL				
Cc1ccc([C@H](C)NC(=S)Nc2ccc(NC(=O)c3ccccc3F)cc2)cc1 [Example 1011, 2-Fluoro-N-{4-[3-((1S)-1-p-tolyl-ethyl)-thioureido]-phenyl}-benzamide]				0.55 µg/mL (≈ 1.35 µM)	> 10 µg/mL	6.8 µg/mL (≈ 16.7 µM)	
Cc1ccc([C@@H](C)NC(=S)Nc2ccc(NC(=O)c3ccccc3F)cc2)cc1 [Example 1012, 2-Fluoro-N-{4-[3-((1R)-1-p-tolyl-ethyl)-thioureido]-phenyl}-benzamide]				> 7.5 µg/mL	> 10 µg/mL	7.1 µg/mL (≈ 17.4 µM)	
C[C@H](NC(=S)Nc1ccc(NC(=O)c2ccccc2F)cc1)c1ccccc1 [Example 1013, 2-Fluoro-N-{4-[3-((1S)-1-phenyl-ethyl)-thioureido]-phenyl}-benzamide]	0.27 µg/mL (≈ 0.686 µM)	> 10 µg/mL	8.2 µg/mL (≈ 20.8 µM)				
C[C@@H](NC(=S)Nc1ccc(NC(=O)c2ccccc2F)cc1)c1ccc(Cl)cc1 [Example 1014, N-(4-{3-[(1R)-1-(4-Chloro-phenyl)-ethyl]-thioureido}-phenyl)-2-fluoro-benzamide]				> 7.5 µg/mL	> 10 µg/mL	2.9 µg/mL (≈ 6.78 µM)	
C[C@H](NC(=S)Nc1ccc(NC(=O)c2ccccc2F)cc1)c1ccc(Cl)cc1 [Example 1015, N-(4-{3-[(1S)-1-(4-Chloro-phenyl)-ethyl]-thioureido}-phenyl)-2-fluoro-benzamide]				0.03 µg/mL (≈ 0.0701 µM)	> 10 µg/mL	2.5 µg/mL (≈ 5.84 µM)	
C[C@@H](NC(=S)Nc1ccc(NC(=O)c2ccccc2F)cc1)c1ccccc1 [Example 1016, 2-Fluoro-N-{4-[3-((1R)-1-phenyl-ethyl)-thioureido]-phenyl}-benzamide]	> 7.5 µg/mL	> 10 µg/mL	6.4 µg/mL (≈ 16.3 µM)				
COc1ccccc1C(=O)Nc1ccc(NC(=S)NC(C)c2ccc(C#N)cc2)cc1 (stereo not shown) [Example 1017, N-(4-{3-[1-(4-Cyano-phenyl}-ethyl]-thioureido}-phenyl)-2-methoxy-benzamide]				0.3 µg/mL (≈ 0.697 µM)	> 10 µg/mL	> 10 µg/mL	
COc1ccccc1C(=O)Nc1ccc(NC(=S)NC(C)c2cc3ccccc3o2)cc1 (stereo not shown) [Example 1018, N-{4-[3-(1-Benzofuran-2-yl-ethyl)-thioureido]-phenyl}-2-methoxy-benzamide]				0.09 µg/mL (≈ 0.202 µM)	> 10 µg/mL	> 10 µg/mL	
CC(NC(=S)Nc1ccc(NC(=O)c2cccc(C#N)c2)cc1)c1ccc(F)cc1 (stereo not shown) [Example 1020, 3-Cyano-N-(4-{3-[1-(4-fluoro-phenyl)-ethyl]-thioureido}-phenyl)-benzamide]	6.3 µg/mL (≈ 15.1 µM)	> 10 µg/mL	6.5 µg/mL (≈ 15.5 µM)				
CC(NC(=S)Nc1ccc(NC(=O)c2ccc(C(F)(F)F)cc2)cc1)c1ccc(F)cc1 (stereo not shown) [Example 1021, N-(4-{3-[1-(4-Fluoro-phenyl)-ethyl]-thioureido}-phenyl)-4-trifluoromethyl-benzamide]	0.4 µg/mL (≈ 0.867 µM)	> 10 µg/mL	> 10 µg/mL				
CC(NC(=S)Nc1ccc(NC(=O)c2ccc(C#N)cc2)cc1)c1ccc(F)cc1 (stereo not shown) [Example 1022, 4-Cyano-N-(4-{3-[1-(4-fluoro-phenyl)-ethyl]-thioureido}-phenyl)-benzamide]	1.5 µg/mL (≈ 3.58 µM)	> 10 µg/mL	4.4 µg/mL (≈ 10.5 µM)				
N-(4-{3-[1-(4-Bromo-phenyl)-ethyl]-thioureido}-phenyl)-2-methoxy-benzamide [Example 1019]							IC50 (ug/ml) VZV [1, 7]: 0.05 µg/mL; IC50 (ug/ml) HSV ([2]; HSV- I, Vero cells, ELISA): >10 µg/mL; IC50 ug/ml HCMV [3]: 2.6 µg/mL
N-{4-[3-(3-Chloro-4-methoxy-phenyl)-thioureido]-phenyl}-4-methoxy-benzamide [Example 821]							% inhibition 10 ug/ml VZV ([1]; 10 ug/ml, VZV strain Ellen, HFF cells, ELISA): 55%; IC50 (ug/ml) VZV [1, 7]: >10 µg/mL; IC50 (ug/ml) HSV ([2]; HSV- I, Vero cells, ELISA): 0.15 µg/mL; IC50 ug/ml HCMV [3]: 1 µg/mL
